Entries after “also recorded” stand apart in the source; their conditions may differ. Like-named read-outs stand apart in the source and are kept apart here.
Legend:
[1] = biological target: T1, alcohol dehydrogenase (ADH) (Equus caballus, UniProt P00327); assay: Inhibition of ADH; type: biochemical; settings: up to 200 μM, MES pH 6.2
T1 construct: purchased Sigma Aldrich 55689
Procedure: Reaction mixtures containing MES (100 mM, pH 6.2), MgCl2 (2 mM), ThDP (5 mM), ADH (16 U/mL), NADH (170 μM), and 1 (0 or 200 μM) were preincubated at 25 °C for 5 min. Enzymatic reactions were initiated via the addition of 20 μL of 10x acetaldehyde (final 1mM), or water for background controls, for a final well volume of 200 μL. Immediately following initiation, NADH depletion was monitored at 340 nm at 25 °C for 6 min with a 11 second time interval. Initial velocities of ethanol formation were measured as above and arithmetically corrected for background rates. Reported standard errors of the mean for Kis are calculated from three replicates.

PaDXPS = biological target: T2, PaDXPS (Pseudomonas aeruginosa, UniProt Q9KGU7); assay: DXPS-IspC coupled assay, PaDXPS; type: biochemical
T2 construct: made in house
Procedure: (§1) Inhibitory activity of compounds against DXPS were monitored via a continuous spectrophotometric coupled assay with DXPS and IspC as previously described.[41],[42] Briefly, Reaction mixtures containing HEPES (100 mM, pH 8.0), MgCl2 (2 mM), NaCl (5 mM), ThDP (1 mM), BSA (1 mg/mL), DXPS (125–500 nM), IspC (1.7 μM), NADPH (160 μM), DMSO (5%, v/v), and inhibitor (0–200 μM) were preincubated at 25 °C (or chamber temperature 25–30 °C) for 5 min. Enzymatic reactions were initiated via the addition of 20 μL of a 10x substrate mix for a final well volume of 200 μL. Reactions were performed in triplicate unless otherwise noted. See the following sections for details and modifications.
(§2) When varying pyruvate (0–500 μM), GAP was maintained at 50 μM (3 mM for R478A). When varying GAP (0–500 μM), pyruvate was maintained at 500 μM. The following [DXPS] were used when varying 1: WT EcDXPS, R478A, H431A, D427A (200 nM), R99A (500 nM), WT DrDXPS, WT PaDXPS (150 nM). Analogs 3 and 4 were tested using WT EcDXPS (150 nM). Reactions were incubated and initiated as described above. Immediately following initiation, NADPH depletion was monitored at 340 nm at 25 °C for 7–10 min with a 14–20 second time interval. Initial velocities of DXP formation were determined from the linear portion of the NADPH decay. Initial velocities were arithmetically corrected for background for compound 4. Initial velocities were plotted vs. substrate concentration, and the data were fit to equation 1 (mixed model), 2 (competitive), or 3 (uncompetitive) based on the calculated α value and goodness of fit in GraphPad Prism. Reported standard errors of the mean for Kis are calculated from three replicates.

EcDXPS = biological target: T3, EcDXPS (Escherichia coli, UniProt P77488); assay: Inhibition in the presence of CAT or ascorbate; type: biochemical, E. coli
T3 construct: made in house
Procedure: Given that CAT prevents nonenzymatic oxidative decarboxylation of pyruvate (Fig S8, S12), but influences the redox state of 1, we evaluated the inhibitory activity of 1 in the presence of CAT (Fig 6). […] In this experiment, 1 was incubated at 25 °C for 5 min in the presence of DXPS, IspC, and either CAT or ascorbate prior to initiation by addition of pyruvate and D-GAP. […] In the presence of ascorbate, 1 is primarily in the reduced form according to NMR (Fig S10).
Reaction solutions were prepared containing EcDXPS (150 nM). Solutions contained either DXPS alone or were supplemented with CAT (0.25 mg/mL) or ascorbate (5 mM). Reaction mixtures were incubated with either water or 1 (100 μM) for 5 min at 25 °C. Reactions were initiated with a mixture of pyruvate (110 μM) and GAP (60 μM), or water for background controls. Immediately following initiation, NADPH depletion was monitored at 340 nm at 25 °C for 7.5 min with a 14 second time interval. Initial velocities of DXP formation were measured as described above and arithmetically corrected for background rates and normalized to the DXPS only control reaction for comparison. Reactions were performed in triplicate, and % inhibition was determined arithmetically from initial velocities. Reported standard errors of the mean for Kis are calculated from three replicates.

H431A DXPS = biological target: T4, H431A DXPS (Escherichia coli, UniProt P77488, H431A); assay: DXPS-IspC coupled assay, H431A variant; type: biochemical, E. coli
T4 construct: made in house
Procedure: To determine the role of active site network residues in the activity of oximes, inhibitory activity of 1 was assessed against EcD427A, EcH431A, and EcR99A by the DXPS-IspC coupled assay[41],[42] (Fig 4B, S3, Table S1). Ki determination was performed by varying [pyruvate] in order to assess the impact of residue substitutions on the uncompetitive mode of inhibition. […] (8.7 ± 1.2 μM, Fig S3, Table S1).
as §1, §2

[2] = biological target: T5, pyruvate decarboxylase (PDC) (Saccharomyces cerevisiae, UniProt P06169); assay: Inhibition of PDC (ADH coupled assay); type: biochemical, S. cerevisiae
T5 construct: purchased Sigma Aldrich P9474; host or cells: baker's yeast
Procedure: Reaction conditions were optimized from a previously reported assay.[38] Briefly, reaction mixtures containing MES (100 mM, pH 6.2), MgCl2 (2 mM), ThDP (5 mM), PDC (0.06 U/mL), ADH (16 U/mL), NADH (170 μM), and 1 (0 or 200 μM) were preincubated at 25 °C for 5 min. Enzymatic reactions were initiated via the addition of 20 μL of 10x pyruvate (final 1mM), or water for background controls, for a final well volume of 200 μL. Immediately following initiation, NADH depletion was monitored at 340 nm at 25 °C for 7 min with a 14 second time interval. Initial velocities of acetaldehyde formation were measured and arithmetically corrected for background rates. Standard errors of reported % inhibition values were determined from 3 replicates. pH controls were conducted with phosphate buffer (pH 7 and 8); background subtraction was not performed on these samples. Reported standard errors of the mean for Kis are calculated from three replicates.

R478A DXPS = biological target: T6, R478A DXPS (Escherichia coli, UniProt P77488, R478A); assay: DXPS-IspC coupled assay, R478A variant; type: biochemical, E. coli
T6 construct: made in house
Procedure: In this experiment, pyruvate was varied from 12.5–500 μM and D-GAP was maintained at 2x Km.. […] Thus, it appears that EcR478A is not absolutely critical for binding 1.
as §1, §2

For `ON=Cc1cc(O)c(O)cc1O` [compound 1, 2,4,5-trihydroxybenzaldoxime], the “Inhibition of ADH” value [1] was “did not inhibit; also recorded: not inhibited”, the Ki (PaDXPS) was 16.4 ± 2.2 µM and the “MOI varying D-GAP” value (PaDXPS; PaDXPS) was “competitive”. For the same molecule, the MOI varying pyruvate (PaDXPS; PaDXPS) was “uncompetitive”, the “Ki/Ki^EcDXPS” value (PaDXPS; PaDXPS, vary pyruvate, fold reduction in potency) was 3.5 and the inhibition at 100 µM (EcDXPS; read-out: %Inhibition at 100 μM 1, Ascorbate 5 mM, aerobic, 100 μM) was 23%. It also gave an inhibition at 100 µM (EcDXPS; read-out: %Inhibition at 100 μM 1, CAT 0.25 mg/mL, aerobic, 100 μM) of 80%, an inhibition at 100 µM (EcDXPS; read-out: %Inhibition at 100 μM 1, Control (DXPS alone), aerobic, 100 μM) of 80 ± 0.5% and a Ki (H431A DXPS) of 1.1 ± 0.1 µM. The MOI varying pyruvate (H431A DXPS; EcH431A) was “uncompetitive”, the “fold lower Ki relative to WT” value (H431A DXPS; H431A, vary pyruvate) was ~ 4 fold and the “Inhibition of PDC at pH 7 or 8” value ([2]; 200 μM, phosphate buffer pH 7 and 8) was “not observed”. The “%Inhibition at 200 μM 1” value ([2]; PDC, MES pH 6.2, 200 μM) was ~ 14%, the inhibition at 200 µM ([2]; pH 6.2, PDC, MES pH 6.2, 200 μM, read-out: %Inhibition at 200 μM 1) was 14.2 ± 2.3% and the Ki (R478A DXPS) was 15.7 ± 0.4 µM. The MOI varying pyruvate (R478A DXPS; EcR478A) was “uncompetitive” and the “Ki/Ki^wt” value (R478A DXPS; R478A, vary pyruvate, fold reduction in potency vs WT) was ~ 3.

Source: doi:10.1101/2025.03.03.641193, “Trihydroxybenzaldoximes are redox cycling inhibitors of ThDP-dependent DXP synthase” (bioRxiv, 2025)
